In one test the test system is Patient-derived cells. The test is described as follows: McTN and stem cell responses of patient-derived cells to drugs (Table 2, predicted). The conditions noted are these: 30 minutes at the concentration given. It counts as cell-based, human. Here is the method:
Patient-derived cells are treated with either vehicle (0.1% DMSO) or each of the drugs in Table 2 at the indicated concentration for 30 minutes and then analyzed for McTN incidence.

A further test deals with MDA-436 cells. Put plainly: Automated McTN analysis (FIG. 24). It is filed as cell-based, human. The conditions noted are these: at least 10 random cells. An excerpt: FIG. 24. Automated McTN analysis. […] A gradient vector flow snake algorithm was used to define the cell edges and a local curvature maxima effectively identified McTN ends (yellow diamonds). […] This automated cell shape analysis will also enable calculations of average McTN length, curvature, etc. that will yield more multi-dimensional data for McTN studies.

The test system of test [1] is MDA-MB-436 cells. The test is described as follows: Real-time McTN imaging of PEM-DOTAP tethered cells with drug treatment (FIG. 29B). It is filed as cell-based, human. The conditions noted are these: for McTN formation: PEM-DOTAP tether; for McTN dynamics over time: compared to vehicle control, time-lapse. Here is the method:
FIG. 29. Lipid tethering allows for real-time microtentacle imaging in response to drug treatment and minimizes effects of drift. (A) Microtentacle (arrows) imaging of MDA-MB-436 cells seeded on micro-slides with PEM-no tether (i-iii) and PEM-DOTAP tether (iv-vi). Representative […] slice (i and iv), maximum z-projection of 5 slices at one time point (ii and v), and maximum t-projection after 20 frames (iii and vi) are shown at 60× magnification. (B) Microtentacle (arrow) imaging of MDA-MB-436 cells seeded on micro-slides with PEM-DOTAP tether after treatment with 5 uM colchicine for 15 minutes and 1 μg/ml Taxol for 120 minutes. Maximum intensity z-projections of five […] slices at one time point are shown at 60× magnification. Scale bar represents […]
MDA-MB-436 cells were trypsinized, spun down, and resuspended in phenol red-free and serum-free DMEM. Cells were seeded on PEM coated micro-slides with 4 bilayers and PEM coated micro-slides with 4 bilayers and the addition of DOTAP (50,000 cells/channel). Cells were incubated for 1 h to allow for tethering. After 1 h, one wash was done where the existing media was gently removed from the bottom port of each channel and fresh media was added to top port. This wash was to ensure only tethered cells were analyzed. After this wash, CellMask orange cell membrane dye was added to each channel to a final concentration of 1:10,000. McTN imaging was done on an Olympus FV100 confocal laser scanning microscope at 60× magnification. Five 1 uM slices and 20 frames at a 10 sec frame rate were taken for at least five image sets for each condition. Colchicine was added to each channel at a final concentration of 5 uM and cells were imaged after 15 minutes. Taxol was added to each channel at final concentration of 1 μg/ml and imaged after 120 minutes. Cells were again imaged with five […] slices and 20 frames at a 10 second frame rate.

For test [2], the system named is MDA-436 breast tumor cells. Put plainly: Quantitative image analysis of time-dependent McTN metrics and tip tracking (FIG. 36-37). It counts as cell-based, human. An excerpt: FIG. 36. Quantitative image analysis of time-dependent McTN metrics. A) MDA-436 breast tumor cells that were tethered with a PEM+DOTAP surface coating were imaged for McTNs with confocal microscopy (5 z-slices of 1 μm, max intensity projection shown). A custom MATLAB algorithm was applied to the image data to find the cell periphery (Perimeter trace) and then locate local points of maximum perimeter curvature (McTN Tracker). B) Analyzing cells at 10 s timepoints allows the dynamic movement of McTNs under vehicle-treated conditions to be appreciated (blue lines).
FIG. 37. Tracking individual McTN tip motion. Applying a particle-tracking algorithm to the McTN tips identified in FIG. 36 allows the movement of individual McTN tips (color-coded) to be followed over time.
Using breast cancer cell lines, we developed a custom MATLAB algorithm to identify McTN ends (points of local surface curvature maxima on a perimeter trace). Combined with automated identification of the cell body (erosion mask), both the number and lengths of individual McTNs can be defined. Now that we have succeeded in tethering tumor cells to PEM-DOTAP surfaces, it dramatically improves our ability to collect time-lapse confocal imaging without the blurring that occurs with even minor cell drift. […] By comparison, the variance of all three measures is reduced in Taxol-treated cells, reflecting the effect of stabilizing microtubules. Individual McTN tips can also be followed with MATLAB particle tracking to quantitate McTN dynamics (FIG. 37).

For a further test, the system named is epithelial cells. Conditions: Liu et al. 2012; Suprynowicz et al. 2012; cited from earlier work.
For test [3], the system named is MDA-MB-436 cells. The test is described as follows: Tethering washing, cell retention. It is filed as cell-based, human. Here is the method: (§1) MDA-MB-436 and MCF-7 cells were seeded on PEM coated micro-slides with 4 bilayers and addition of DOPC or DOTAP (50,000 cells/channel). Cells were incubated for 1 h to allow for tethering. To quantify initial cell number, three images per channel were taken for each condition at time 0. After 1 h, existing media was gently removed from the bottom port of each channel and fresh media was added to the top port. Following a wash, three images were taken per channel for each condition using an Olympus CKX41 microscope at 4× magnification. This process was repeated for each wash. The area of the image occupied with cells (as a percent) was quantified using CellProfiler and the average from three images was calculated. The average percentage for each condition was then normalized to the area occupied at time 0.

The next test has as its system MCF-7 cells. The test is described as follows: Tethering washing, cell retention. It is filed as cell-based, human. Here is the method: as §1
The test system of test [4] is tumor cells. The conditions noted are these: tumor cells treated with taxol; cited from earlier work.
Test [5] relates to stem cell characteristics. The conditions noted are these: Gupta et al. 2009; cited from earlier work.
Test [6] deals with SkBr3 cells. Put plainly: McTN scoring in detached SkBr3 cells, confocal microscopy for tubulin (FIG. 4). It is filed as cell-based. Conditions: nonmetastatic SkBr3 cells. The text has this:
FIG. 4. Targeting cell division can increase McTNs. […] (Bars=mean±S.D from 3 expts. with McTNs scored blindly).

Test [7] deals with SkBr3 cells. The conditions noted are these: Balzer et al. 2010, see FIG. 4; cited from earlier work.
The subject of the next test is CTCs. Conditions: neoadjuvant treatment in advance of surgery; cited from earlier work.
Test [8] has as its system tumor cells. Put plainly: Retention of tethered cells after formaldehyde crosslinking of DOTAP to PEM (FIG. 38B). It is filed as cell-based. Conditions: DOTAP crosslinked to PEM with formaldehyde vs charge interaction, multiple washes. An excerpt: FIG. 38. PEM coating for McTN studies.
We assembled PEMs from alternating layers of polymethacrylic acid (PMA) and polyacrylamide (PAAm) to coat microfluidic channels with very thin (100-1000 Angstroms) multilayers that retain high optical clarity. […] This crosslinking approach enables us to conduct improved imaging, time-dependent drug treatments without causing cell drift, but also illustrates that photo-crosslinking could be used to develop patterned arrays to facilitate tumor cell mechanical measurements and cell fate studies.

[9] abbreviates: terminal lipid on 4 PMA/PAAm bilayers, successive washes.
[10] abbreviates: Taxol 1 μg/ml, PEM+DOTAP tethered.
Setting [11] is: Taxol, McTN tip particle tracking.
[12] abbreviates: first wash, 4 PMA/PAAm bilayers, 1 h tethering.

Entries after “also recorded” stand apart in the source; their conditions may differ.

For the compound `COc1cc2c(c(OC)c1OC)-c1ccc(OC)c(=O)cc1[C@@H](NC(C)=O)CC2` [Colchicine], the “Predicted stemness & McTN effect” value with Patient-derived cells is “Decrease”. For the same compound, in the test on MDA-436 cells (colchicine 50 μM), the “average number of McTNs per cell” value is “significantly reduces the average number of McTNs per cell”. Moreover, the McTN formation result in the test on MDA-MB-436 cells [1] (colchicine 5 uM, 15 minutes) is reported as “decreases microtentacles; also recorded: inhibited McTN formation”. For the same compound, the “McTN dynamics over time” value with MDA-MB-436 cells [1] (colchicine) was “shrinks McTNs and enhances cell blebbing”. In test [2] (Colchicine 50 μM, PEM+DOTAP tethered), the McTNs result was “completely inhibits McTN generation; also recorded: completely eliminates McTNs”.

With `C[C@@H](N)[C@H]1CC[C@H](C(=O)Nc2ccncc2)CC1` [Y-27632], the “Predicted stemness & McTN effect” value with Patient-derived cells was “Increase”. In the test on epithelial cells, the stem cell conversion result is listed as “conversion is occurring”.

`CC(=O)O[C@@]12CO[C@@H]1C[C@H](O)[C@@]1(C)C(=O)[C@H](O)C3=C(C)[C@@H](OC(=O)[C@H](O)[C@@H](NC(=O)OC(C)(C)C)c4ccccc4)C[C@@](O)([C@@H](OC(=O)c4ccccc4)[C@H]21)C3(C)C` [Docetaxel]: the “Predicted stemness & McTN effect” value in the test with Patient-derived cells is “Increase”.

In the case of `C=C1C(=O)O[C@@H]2/C=C(\C)CC/C=C(\C)CC[C@@H]12` [Costunolide], the “Predicted stemness & McTN effect” value with Patient-derived cells is “Decrease”.

On to `CCCCCCCC/C=C\CCCCCCCC(=O)OC[C@H](COP(=O)([O-])OCC[N+](C)(C)C)OC(=O)CCCCCCC/C=C\CCCCCCCC` [DOPC, 1,2-dioleoyl-sn-glycero-3-phosphocholine], for which the “tethering of tumor cells” value in the test with MDA-MB-436 cells [3] (setting [9]) and with MCF-7 cells (setting [9]) was “unable to effectively tether either type of tumor cells” in each case.

On to `CC(=O)O[C@H]1C(=O)[C@@]2(C)[C@H]([C@H](OC(=O)c3ccccc3)[C@]3(O)C[C@H](OC(=O)[C@H](O)[C@@H](NC(=O)c4ccccc4)c4ccccc4)C(C)=C1C3(C)C)[C@]1(OC(C)=O)CO[C@@H]1C[C@@H]2O` [Paclitaxel], for which the “lung trapping of tumor cells” value with tumor cells [4] is on record as “greater lung trapping of tumor cells”. In [5], the “stem cell characteristics and tumor metastasis” value is “increases stem cell characteristics and even tumor metastasis”. The “levels of McTNs” value in the test on SkBr3 cells [6] (Paclitaxel-Taxol 1.2 μM) is on record as “increases levels of McTNs dramatically”. In the test on Patient-derived cells, the “Predicted stemness & McTN effect” value is “Increase”. Moreover, in the test on MDA-436 cells (paclitaxel 1 μM), the “average number of McTNs per cell” value is “increases McTNs, but this does not reach significance”. Moreover, the McTN formation entry in the test with MDA-MB-436 cells [1] (Taxol 1 μg/ml, 120 minutes) is “enhances McTNs; also recorded: enhanced McTN formation”. For the same compound, the “McTN dynamics over time” value with MDA-MB-436 cells [1] (taxol) is given as “hyperstabilizes McTNs dramatically decreasing their dynamics”. Moreover, the “range of McTN measurements and variance of all metrics” value in test [2] (Taxol 1 μg/ml, 10 s timepoints) was “reduced; also recorded: strongly reduces the range of McTN measurements and the variance of all metrics”. In test [2] (setting [10]), the McTN length entry was “increases” and the “number of McTNs per cell >4 μm from cell periphery (McTN number)” value is recorded as “increases the number of McTNs per cell”. Also, in test [2] (setting [11]), the “McTN persistence (area over which a McTN moves)” value is on record as “make McTNs more persistent” and the “average McTN speed” value was “reduce average McTN speed”. Moreover, in the test with SkBr3 cells [7], the McTNs result was “strongly promote McTNs”. Further, the “increase of CTCs” value with CTCs is listed as “more than 1000 fold”.

Turning to `O=S(=O)(c1cccc2c(I)cccc12)N1CCCNCC1` [ML-7], the “Predicted stemness & McTN effect” value with Patient-derived cells is reported as “Decrease”.

With `C/C(=C\c1csc(C)n1)[C@@H]1C[C@@H]2O[C@]2(C)CCC[C@H](C)[C@H](O)[C@@H](C)C(=O)C(C)(C)[C@@H](O)CC(=O)N1` [Ixabepilone], in the test with Patient-derived cells, the “Predicted stemness & McTN effect” value was “Increase”.

In the case of `CC[C@]1(O)C[C@@H]2CN(CCc3c([nH]c4ccccc34)[C@@](C(=O)OC)(c3cc4c(cc3OC)N(C)[C@H]3[C@@](O)(C(=O)OC)[C@H](OC(C)=O)[C@]5(CC)C=CCN6CC[C@]43[C@@H]65)C2)C1` [Vinblastine], in the test on Patient-derived cells, the “Predicted stemness & McTN effect” value is “Decrease”.

For `CCCCCCCC/C=C\CCCCCCCC(=O)OCC(C[N+](C)(C)C)OC(=O)CCCCCCC/C=C\CCCCCCCC` (stereo not shown) [DOTAP, 1,2-dioleoyl-3-trimethylammonium-propane], the “retention of tethered tumor cells” value in the test with tumor cells [8] is “dramatically improves retention of tethered tumor cells during multiple washes; also recorded: significantly improves initial tethering efficiency and resistance to washing”. Moreover, the cell retention stood at 38% in the test on MDA-MB-436 cells [3] (setting [12]), 15% with MCF-7 cells (after five washes) and 80% in the test with MCF-7 cells (setting [12]).

On to `C/C1=C\[C@H](C)C[C@H](C)OC(=O)C[C@H](c2ccc(O)cc2)NC(=O)[C@@H](Cc2c(Br)[nH]c3ccccc23)N(C)C(=O)[C@H](C)NC(=O)[C@@H](C)C1` [Jasplakinolide], for which the “levels of McTNs” value in the test with SkBr3 cells [6] (Jas 500 nM) is reported as “increases levels of McTNs dramatically”. The “Predicted stemness & McTN effect” value in the test on Patient-derived cells is given as “Decrease”. Further, the McTNs entry with SkBr3 cells [7] is reported as “strongly promote McTNs”.

Consider `O=S(=O)(c1cccc2cnccc12)N1CCCNCC1` [Fasudil], for which, in the test with Patient-derived cells, the “Predicted stemness & McTN effect” value was “Increase”.

For `CN(C)S(=O)(=O)c1ccc2c(c1)/C(=C/c1cc3c([nH]1)CCCC3)C(=O)N2` [SU6656], the “Predicted stemness & McTN effect” value in the test on Patient-derived cells is given as “Increase”.

The values above are taken from US11054413B2, “Materials and methods for assaying living cells” (UNIVERSITY OF MARYLAND, COLLEGE PARK, priority 2014, dated 2021).
